Experimental data taken from patent US20050054582A1, “Para-amino benzoic acids as integrin antagonists” (priority 2001, published 2005).

Tested on: adhesion of Ramos cells to VCAM-1
Assay: Adhesion of Ramos cells to immobilized VCAM-1 (domains 1-3)
Assay type: cell-based
Settings: Homo sapiens, Ramos
From the text: In Vitro Assay: Adhesion of Ramos Cells to Immobilized VCAM-1 (Domains 1-3) Preparation of VCAM-1 (Extracellular Domains 1-3)
Complementary DNA (cDNA) encoding 7-domain form of VCAM-1 (GenBank accession #M60335) was obtained using Rapid-Screen™ cDNA library panels (OriGene Technologies, Inc) at Takara Gene Analysis Center (Shiga, Japan). The primers used were 5′-CCAAGGCAGAGTACGCAAAC-3′ (sense) and 5′-TGGCAGGTATTATTAAGGAG-3′ (antisense). PCR amplification of the 3-domain VCAM-1 cDNA was perform using Pfu DNA polymerase (Stratagene) with the following sets of primers: (U-VCAMd1-3) 5′-CCATATGGTACCTGATCAATTTAAAATCGAGACCACCCCAGAA-3′; (L-VCAMdl-3) 5-CCATATAGCAATCCTAGGTCCAGGGGAGATCTCAACAGTAAA-3′. PCR cycle was 94° C. for 45 sec, 55° C. for 45 sec, 72° C. for 2 min, repeating 15 cycles. After the purification of the PCR product, the fragment was digested with KpnI-AvrII. The digested fragment was ligated into pBluescript IISK(−) (Strategene), which was linearized by digesting with KpnI-XhoI. The ligation was followed by transformation to a Dam/Dcm methylase-free E. coli strain SCS110 (Strategene) to create the donor plasmid […]. To direct VCAM-1 molecule into the insect cell secretory pathway, the VCAM-1 coding sequence was fused to signal peptide sequence of honeybee melittin. The resulting melittin-VCAM fusion was placed in correct orientation to the baculovirus polyhedrin promoter. Baculovirus transfer vector containing first 3-domain form VCAM-1 (pH10) was constructed by ligation of 0.9 kb fragment from AvrII/Klenow/BclI digests of pH7 into SalI/Klenow/BamHI digests of pMelBacB (Invitrogen). Recombinant baculovirus was generated by using Bac-N-Blue™ Transfection kit (Invitrogen) according to the manufacture's instruction. The recombinant virus was amplified by infection to High-Five™ insect cells for 5-6 days, and virus titer was determined by plaque assay.
High-Five™ insect cells were pelleted in a 225 ml conical tube by centrifugation at 1000 rpm for 5 min. After discarding the supernatant, the pellet was resuspended in 1.5×10^9 pfu (MOI=5) of high-titer virus solution, followed by incubation for 1.5 hours at room temperature. The cells were pelleted again and washed once in fresh Express Five™ serum free medium. The cells were pelleted again and finally, resuspended in 200 ml of fresh Express Five TM medium, transferred to a 1,000 ml shaker flask, and incubated in a shaker at 27° C., 130 rpm, for 48 hours before the culture supernatant was collected. The purification of 3-domain form of VCAM-1 from the culture supernatant was performed by one-step anion exchange chromatography. Protein concentration was determined by using Coomassie protein assay reagent (Pierce) according to the manufacture's instruction.
Preparation of VCAM-1 Coated Microtiter Plates
Recombinant human VCAM-1 (extracellular domains 1-3) was dissolved at 1.0 μg/ml in PBS. Each well of the microtiter plates (Nalge Nunc International, Fluoronunc Cert, 437958) was coated with 100 μl of substrate or for background control with buffer alone for 15 hours at 4 C. After discarding the substrate solution, the wells were blocked using 150 μl per well of block solution (Kirkegaard Perry Laboratories, 50-61-01) for 90 minutes. The plate was washed with wash buffer containing 24 mM Tris-HCl (pH 7.4), 137 mM NaCl, […] and 2 mM MnCl2 just before addition of the assay.
In Vitro Assay using Ramos Cells
Preparation of Fluorescence Labeled Ramos Cells:
Ramos cells (American Type Culture Collection, Clone CRL-1596) were cultured in RPMI 1640 medium (Nikken Bio Medical Laboratory, CM1101) supplemented with 10% fetal bovine serum (Hyclone, A-1119-L), 100 U/ml penicilin (Gibco BRL, 15140-122) and 100 μg/ml streptomycin (Gibco BRL, 15140-122) in a humidified incubator at 37° C. with 5% CO2. […]

SMILES	IC50 [nM]
Cc1ccccc1NC(=O)Nc1ccc(CC(=O)N(CCCN(C)C)CC(=O)Nc2ccc(C(=O)O)cc2)cc1 [Example 56, 4-[(N-[3-(dimethylamino)propyl]-N-{[4-({[(2-methylphenyl)amino]carbonyl}amino)phenyl]acetyl}glycyl)amino]benzoic acid]	< 500
Cc1ccccc1NC(=O)Nc1ccc(CC(=O)N(CCCCN)CC(=O)Nc2ccc(C(=O)O)cc2)cc1 [Example 57, 4-[(N-(4-aminobutyl)-N-{[4-({[(2-methylphenyl)amino]carbonyl}amino)-phenyl]acetyl}glycyl)amino]benzoic acid]	< 500
Cc1ccccc1NC(=O)Nc1ccc(CC(=O)N(CCCN2CCCC2)CC(=O)Nc2ccc(C(=O)O)cc2)cc1 [Example 58, 4-({N-{[4-({[(2-methylphenyl)amino]carbonyl}amino)phenyl]acetyl}-N-[3-(1-pyrrolidinyl)propyl]glycyl}amino)benzoic acid]	< 500
Cc1ccccc1NC(=O)Nc1ccc(CC(=O)N(CCCN2CCN(c3ccccc3)CC2)CC(=O)Nc2ccc(C(=O)O)cc2)cc1 [Example 60, 4-({N-{[4-({[(2-methylphenyl)amino]carbonyl}amino)phenyl]acetyl}-N-[3-(4-phenyl-1-piperazinyl)propyl]glycyl}amino)benzoic acid]	< 500
Cc1ccccc1NC(=O)Nc1ccc(CC(=O)N(CC(=O)Nc2ccc(C(=O)O)cc2)CC2CCCO2)cc1 (centres unmarked) [Example 61, 4-{[N-{[4-({[(2-methylphenyl)amino]carbonyl}amino)phenyl]acetyl}-N-(tetrahydro-2-furanylmethyl)glycyl]amino}benzoic acid]	< 500
Cc1ccccc1NC(=O)Nc1ccc(CC(=O)N(CC(=O)Nc2ccc(C(=O)O)cc2)CC2CCNCC2)cc1 [Example 62, 4-{[N-{[4-({[(2-methylphenyl)amino]carbonyl}amino)phenyl]acetyl}-N-(4-piperidinylmethyl)glycyl]amino}benzoic acid]	< 500
Cc1ccccc1NC(=O)Nc1ccc(CC(=O)N(CC(=O)Nc2ccc(C(=O)O)cc2)CC(C)(C)CN)cc1 [Example 63, 4-[(N-(3-amino-2,2-dimethylpropyl)-N-{[4-({[(2-methylphenyl)amino]-carbonyl}amino)phenyl]acetyl}glycyl)amino]benzoic acid]	< 500
CCCN(CC(=O)Nc1ccc(C(=O)O)cc1)C(=O)Cc1ccc(NC(=O)Nc2ccccc2C)cc1 [Example 65, 4-[(N-{[4-({[(2-methylphenyl)amino]carbonyl}amino)phenyl]acetyl}-N-propylglycyl)amino]benzoic acid]	< 500
Cc1ccccc1NC(=O)Nc1ccc(CC(=O)N(CCCN2CCCC2=O)CC(=O)Nc2ccc(C(=O)O)cc2)cc1 [Example 66, 4-({N-{[4-({[(2-methylphenyl)amino]carbonyl}amino)phenyl]acetyl}-N-[3-(2-oxo-1-pyrrolidinyl)propyl]glycyl}amino)benzoic acid]	< 500
COCCN(CC(=O)Nc1ccc(C(=O)O)cc1)C(=O)Cc1ccc(NC(=O)Nc2ccccc2C)cc1 [Example 67, 4-[(N-(2-methoxyethyl)-N-{[4-({[(2-methylphenyl)amino]carbonyl}amino)-phenyl]acetyl}glycyl)amino]benzoic acid]	< 500
Cc1ccccc1NC(=O)Nc1ccc(CC(=O)N(CCCN2CCOCC2)CC(=O)Nc2ccc(C(=O)O)cc2)cc1 [Example 68, 4-({N-{[4-({[(2-methylphenyl)amino]carbonyl}amino)phenyl]acetyl}-N-[3-(4-morpholinyl)propyl]glycyl}amino)benzoic acid]	< 500
Cc1ccccc1NC(=O)Nc1ccc(CC(=O)N(CC(=O)Nc2ccc(C(=O)O)cc2)Cc2cccnc2)cc1 [Example 69, 4-{[N-{[4-({[(2-methylphenyl)amino]carbonyl}amino)phenyl]acetyl}-N-(3-pyridinylmethyl)glycyl]amino}benzoic acid]	< 500
Cc1ccccc1NC(=O)Nc1ccc(CC(=O)N(CC(=O)Nc2ccc(C(=O)O)cc2)Cc2ccccn2)cc1 [Example 70, 4-{[N-{[4-({[(2-methylphenyl)amino]carbonyl}amino)phenyl]acetyl}-N-(2-pyridinylmethyl)glycyl]amino}benzoic acid]	< 500

Results, then the compound that gave them:

IC50 [nM]	SMILES
< 500	Cc1ccccc1NC(=O)Nc1ccc(CC(=O)N[C@@H](CCN)C(=O)Nc2ccc(C(=O)O)cc2)cc1 [Example 40, 4-{[(2S)-4-amino-2-({[4-({[(2-methylphenyl)amino]carbonyl}amino)phenyl]acetyl}amino)butanoyl]amino}benzoic acid]
< 500	Cc1ccccc1NC(=O)Nc1ccc(CC(=O)N[C@@H](CCCN)C(=O)Nc2ccc(C(=O)O)cc2)cc1 [Example 41, 4-[(N^2-{[4-({[(2-methylphenyl)amino]carbonyl}amino)phenyl]acetyl}-L-ornithyl)amino]benzoic acid]
< 500	Cc1ccccc1NC(=O)Nc1ccc(CC(=O)N[C@@H](CC(=O)O)C(=O)Nc2ccc(C(=O)O)cc2)cc1 [Example 42, 4-[(N-{[4-({[(2-methylphenyl)amino]carbonyl}amino)phenyl]acetyl}-L-α-aspartyl)amino]benzoic acid]
< 500	Cc1ccccc1NC(=O)Nc1ccc(CC(=O)N[C@@H](Cc2c[nH]c3ccccc23)C(=O)Nc2ccc(C(=O)O)cc2)cc1 [Example 43, 4-[(N-{[4-({[(2-methylphenyl)amino]carbonyl}amino)phenyl]acetyl}-L-tryptophyl)amino]benzoic acid]
< 500	Cc1ccccc1NC(=O)Nc1ccc(CC(=O)NC(Cc2ccncc2)C(=O)Nc2ccc(C(=O)O)cc2)cc1 [Example 44, 4-{[N-{[4-(f{[(2-methylphenyl)amino]carbonyl}amino)phenyl]acetyl}-3-(4-pyridinyl)-L-alanyl]amino}benzoic acid]
< 500	Cc1ccccc1NC(=O)Nc1ccc(CC(=O)N[C@@H](Cc2cccnc2)C(=O)Nc2ccc(C(=O)O)cc2)cc1 [Example 45, 4-{[N-{[4-({[(2-methylphenyl)amino]carbonyl}amino)phenyl]acetyl}-3-(3-pyridinyl)-L-alanyl]amino}benzoic acid]
< 500	Cc1ccccc1NC(=O)Nc1ccc(CC(=O)N[C@@H](Cc2cscn2)C(=O)Nc2ccc(C(=O)O)cc2)cc1 [Example 46, 4-{[N-{[4-({[(2-methylphenyl)amino]carbonyl}amino)phenyl]acetyl}-3-(1,3-thiazol-4-yl)-L-alanyl]amino}benzoic acid]
< 500	Cc1ccccc1NC(=O)Nc1ccc(CC(=O)N[C@@H](Cc2cnc[nH]2)C(=O)Nc2ccc(C(=O)O)cc2)cc1 [Example 47, 4-[(N-{[4-({[(2-methylphenyl)amino]carbonyl}amino)phenyl]acetyl}-L-histidyl)amino]benzoic acid]

Same assay, conditions: Homo sapiens; observed IC50 value ranges; Table 4 does not say whether Ramos-VCAM-1 or Jurkat-VCAM-1; read-out: IC50

SMILES	IC50 [nM]
CCN1CCCC1CN(CC(=O)Nc1ccc(C(=O)O)cc1)C(=O)Cc1ccc(NC(=O)Nc2ccccc2C)cc1 (centres unmarked) [Example 59, 4-[(N-[(1-ethyl-2-pyrrolidinyl)methyl]-N-{[4-({[(2-methylphenyl)amino]-carbonyl}amino)phenyl]acetyl}glycyl)amino]benzoic acid]	< 500
Cc1ccccc1NC(=O)Nc1ccc(CC(=O)N(CCN2CCCC2)CC(=O)Nc2ccc(C(=O)O)cc2)cc1 [Example 64, 4-({N-{[4-({[(2-methylphenyl)amino]carbonyl}amino)phenyl]acetyl}-N-[2-(1-pyrrolidinyl)ethyl]glycyl}amino)benzoic acid]	< 500
